Experimental data from PubChem BioAssay AID1963445 (Molecular Pharmacology Branch, DTP, NCI, 2024).

Tested on: MCF7 complex spheroid growth, % test/control
Test: Anticancer human tumor MCF7 cell line growth inhibition [Asc];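 further: spheroids exposed to compounds for 7 days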;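 on viability, T/C: 100% = DMSO vehicle control wells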
Settings: for IC50: curve of first compound; for viability, T/C: stronger effect = lower value
Outline: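 Concentration series start at each agent's clinical Cmax, or at 10 microM when none is established, and drop in half-log steps; agents are applied alone or together to complex spheroids built with HUVEC and hMSC.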

`CCN1CCN(Cc2ccc(Nc3ncc(F)c(-c4cc(F)c5nc(C)n(C(C)C)c5c4)n3)nc2)CC1` + CNC(C)C(=O)NC1CN(S(=O)(=O)c2cccc(S(=O)(=O)N3CCC4CCC(C(=O)NC(c5ccccc5)c5ccccc5)N4C(=O)C(NC(=O)C(C)NC)C3)c2)CCC2CCC(C(=O)NC(c3ccccc3)c3ccccc3)N2C1=O was tested, and the IC50 (second compound 0.00316 µM) was < 3.16 nM, the IC50 (second compound 0.01 µM) was < 3.16 nM and the IC50 (second compound 0.0316 µM) was < 3.16 nM. The IC50 (second compound 0.1 µM) was < 3.16 nM, the IC50 (second compound 0.316 µM) was < 3.16 nM and the IC50 (second compound 1 µM) was < 3.16 nM. It also gave a viability, T/C (second compound 0.00316 µM, first compound 0.00316 µM) of 30.3%, a viability, T/C (second compound 0.00316 µM, first compound 0.01 µM) of 32.9% and a viability, T/C (second compound 0.00316 µM, first compound 0.0316 µM) of 12.9%. The viability, T/C (second compound 0.00316 µM, first compound 0.1 µM) was 20.2%, the viability, T/C (second compound 0.00316 µM, first compound 0.316 µM) was 12.3% and the viability, T/C (second compound 0.00316 µM, first compound 1 µM) was 14.1%. For the same molecule, the viability, T/C (second compound 0.01 µM, first compound 0.00316 µM) was 17.1%, the viability, T/C (second compound 0.01 µM, first compound 0.01 µM) was 10.8% and the viability, T/C (second compound 0.01 µM, first compound 0.0316 µM) was 10.1%. The viability, T/C (second compound 0.01 µM, first compound 0.1 µM) was 10.1%, the viability, T/C (second compound 0.01 µM, first compound 0.316 µM) was 10.5% and the viability, T/C (second compound 0.01 µM, first compound 1 µM) was 11.8%. It also gave a viability, T/C (second compound 0.0316 µM, first compound 0.00316 µM) of 14.4%, a viability, T/C (second compound 0.0316 µM, first compound 0.01 µM) of 9.49% and a viability, T/C (second compound 0.0316 µM, first compound 0.0316 µM) of 9.67%. It also gave a viability, T/C (second compound 0.0316 µM, first compound 0.1 µM) of 11.8%, a viability, T/C (second compound 0.0316 µM, first compound 0.316 µM) of 11.1% and a viability, T/C (second compound 0.0316 µM, first compound 1 µM) of 10.6%. The viability, T/C (second compound 0.1 µM, first compound 0.00316 µM) was 12.2%, the viability, T/C (second compound 0.1 µM, first compound 0.01 µM) was 10.9% and the viability, T/C (second compound 0.1 µM, first compound 0.0316 µM) was 10.2%. For the same molecule, the viability, T/C (second compound 0.1 µM, first compound 0.1 µM) was 8.76%, the viability, T/C (second compound 0.1 µM, first compound 0.316 µM) was 11.4% and the viability, T/C (second compound 0.1 µM, first compound 1 µM) was 10%. The viability, T/C (second compound 0.316 µM, first compound 0.00316 µM) was 13.4%, the viability, T/C (second compound 0.316 µM, first compound 0.01 µM) was 13.1% and the viability, T/C (second compound 0.316 µM, first compound 0.0316 µM) was 13.2%. For the same molecule, the viability, T/C (second compound 0.316 µM, first compound 0.1 µM) was 11.2%, the viability, T/C (second compound 0.316 µM, first compound 0.316 µM) was 8.8% and the viability, T/C (second compound 0.316 µM, first compound 1 µM) was 8.66%. The viability, T/C (second compound 1 µM, first compound 0.00316 µM) was 10.8%, the viability, T/C (second compound 1 µM, first compound 0.01 µM) was 12% and the viability, T/C (second compound 1 µM, first compound 0.0316 µM) was 11.3%. It also gave a viability, T/C (second compound 1 µM, first compound 0.1 µM) of 10.8%, a viability, T/C (second compound 1 µM, first compound 0.316 µM) of 10.7% and a viability, T/C (second compound 1 µM, first compound 1 µM) of 8.18%.
